Assay results from US20230219965A1 (KSQ Therapeutics, Inc., priority 2020, published 2023).
pIC50: −log10 of the molar value. Like-named read-outs stand apart in the source and are kept apart here.

Experiments:
USP1/UAF1 enzyme = USP1/UAF1 enzyme (Homo sapiens, UniProt O94782); test: USP1/UAF1 deubiquitination assay (ubiquitin-rhodamine 110 substrate); assay type: biochemical; settings: read-out: USP1 IC50 (Ub-Rho)
Procedure, shortened: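 Cleavage of 150 nM ubiquitin-rhodamine 110 by 0.05 nM USP1/UAF1 was followed as fluorescence (Ex480/Em540, kinetic, 30 min) in Tris-HCl pH 7.8 buffer with EDTA, BSA, DTT and Tween-20. Compounds, top 10 μM, were preincubated with enzyme 10 min; % inhibition against no-enzyme and DMSO wells gave four-parameter IC50s.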

[1] = tested on: Ub-PCNA levels in the nucleus of ES2 cells (USP1 activity); test: ES2 Ub-PCNA immunofluorescence (IF) assay; assay type: cell-based; settings: Homo sapiens, ES-2; ES2 cells, 3 hours, Ub-PCNA immunofluorescence; read-out: USP1 IC50 (Ub-PCNA)
Experimental: USP1 is a deubiquitinating enzyme that removes ubiquitin from mono-ubiquitinated Proliferating Cell Nuclear Antigen (Ub-PCNA). The levels of Ub-PCNA in the nucleus of cells can be used to assess the activity of USP1. An immunofluorescence assay can be established to monitor Ub-PCNA levels in the ovarian cancer cell line, ES2.
An assay can be performed by first plating 5000 ES2 cells per well in black 96 well plates (Corning #3904) and then incubating overnight at 37° C. and 5% CO2. Compounds, resuspended in DMSO, can be added to the cells, to a final DMSO concentration of 0.3%. Plates can be incubated at 37° C. and 5% CO2 for 3 hours.
Cells can be then fixed and stained by first removing the media from each plate and fixing the cells with −20° C. methanol for 5 minutes at room temperature. Fixation plates can be washed with Tris buffered saline with tween (Boston Bioproducts #IBB-855) 5 times for 5 minutes each. Plates can be blocked for 1 hour with 50 μl of Odyssey blocking buffer (Licor #327-50000) at room temperature with rocking. Block can be removed from all wells and 50 μl of primary antibody was added to each well. Ub-PCNA ab (Cell Signaling Technology #13439) can be diluted at 1:400 in Odyssey blocking buffer. Plates can be sealed and incubated overnight at 4° C. Primary antibodies can be removed from the plates and plates can be washed with Tris buffered saline with tween 5 times for 5 minutes. Plates can be stained for 1 hour at room temperature with rocking with 50 μl of secondary antibodies diluted 1:10,000 in Odyssey blocking buffer at room temperature (anti-rabbit Alexa 488). Antibodies can be removed from the plates and plates can be washed with Tris buffered saline with tween 3 times for 5 minutes. Plates can be washed once with DAPI (Chemometec #910-3012) stain diluted 1:5000 (Stock solution of 500 μg/ml) in tris buffered saline with tween for 5 minutes. DAPI stain can be removed and plates can be washed one additional time for 5 minutes with tris buffered saline with tween. Wash can be removed from the plate and 100 μl tris buffered saline with tween can be added back to all wells, Plates can be sealed with Foil seals or black plate seals and plates can be stored at 4° C. until they can be imaged.
Imaging of the plates can be performed by first locating the nuclei using the DAPI stain. A mask can be created by drawing a circle slightly smaller than each nucleus. Ub-PCNA intensities can be measured for each individual nucleus counted. A histogram of all Ub-PCNA nuclear intensities measured in untreated wells can be generated and a 95% cutoff can be established. This 95% cutoff can be used to determine the number of Positive cells that have Ub-PCNA values higher than the 95% cutoff. The number of positive cells can be expressed as a percentage by dividing by the total number of cells in the well. This percent positive value can be used to graph all data and to determine AC50 values.
USP1 is a deubiquitinating enzyme that removes ubiquitin from mono-ubiquitinated
Proliferating Cell Nuclear Antigen (Ub-PCNA). The levels of Ub-PCNA in the nucleus of cells was used to assess the activity of USP1. An immunofluorescence assay was established to monitor Ub-PCNA levels in the ovarian cancer cell line, ES2.
This assay was performed by first plating 5000 ES2 cells per well in black 96 well plates (Corning #3904) and then incubated overnight at 37° C. and 5% CO2. Compounds, resuspended in DMSO, were added to the cells, to a final DMSO concentration of 0.3%. Plates were incubated at 37° C. and 5% CO2 for 3 hours.
Cells were then fixed and stained by first removing the media from each plate and fixing the cells with −20° C. methanol for 5 minutes at room temperature. Following fixation plates were washed with Tris buffered saline with tween (Boston Bioproducts ABB-855) 5 times for 5 minutes each. Plates were blocked for 1 hour with 50μ.1 of Odyssey blocking buffer (Licor #327-50000) at room temperature with rocking. […]

[2] = ADME solubility determination in PBS at pH 2.0 and pH 7.4; assay type: physicochemical; settings: phosphate buffered saline, 25 °C, thermodynamic from solid
Procedure, shortened: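 Solubility was read by LC-MS/MS on centrifuged supernatants, calibrated to a known-concentration standard and corrected for dilution. Compound, dried down from 10 mM DMSO stock, was equilibrated 24 h at 25° C with shaking in PBS at pH 2.0 or pH 7.4.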

[3] = Liver microsomal metabolic stability, rat liver microsomes (RLM); settings: rat, liver microsomes, t1/2 (min) in RLM, 1 μM compound, 1 mg/mL microsomes, NADPH
[4] = Liver microsomal metabolic stability, human liver microsomes (HLM); settings: human, liver microsomes
[5] = pH 2, aqueous buffer, PBS pH 2.0, 25° C., read-out: Solubility at pH 2.0
[6] = pH 7.4, aqueous buffer, PBS pH 7.4, 25° C., read-out: Solubility at pH 7.4

Sequence of USP1/UAF1 enzyme (O94782 whole entry): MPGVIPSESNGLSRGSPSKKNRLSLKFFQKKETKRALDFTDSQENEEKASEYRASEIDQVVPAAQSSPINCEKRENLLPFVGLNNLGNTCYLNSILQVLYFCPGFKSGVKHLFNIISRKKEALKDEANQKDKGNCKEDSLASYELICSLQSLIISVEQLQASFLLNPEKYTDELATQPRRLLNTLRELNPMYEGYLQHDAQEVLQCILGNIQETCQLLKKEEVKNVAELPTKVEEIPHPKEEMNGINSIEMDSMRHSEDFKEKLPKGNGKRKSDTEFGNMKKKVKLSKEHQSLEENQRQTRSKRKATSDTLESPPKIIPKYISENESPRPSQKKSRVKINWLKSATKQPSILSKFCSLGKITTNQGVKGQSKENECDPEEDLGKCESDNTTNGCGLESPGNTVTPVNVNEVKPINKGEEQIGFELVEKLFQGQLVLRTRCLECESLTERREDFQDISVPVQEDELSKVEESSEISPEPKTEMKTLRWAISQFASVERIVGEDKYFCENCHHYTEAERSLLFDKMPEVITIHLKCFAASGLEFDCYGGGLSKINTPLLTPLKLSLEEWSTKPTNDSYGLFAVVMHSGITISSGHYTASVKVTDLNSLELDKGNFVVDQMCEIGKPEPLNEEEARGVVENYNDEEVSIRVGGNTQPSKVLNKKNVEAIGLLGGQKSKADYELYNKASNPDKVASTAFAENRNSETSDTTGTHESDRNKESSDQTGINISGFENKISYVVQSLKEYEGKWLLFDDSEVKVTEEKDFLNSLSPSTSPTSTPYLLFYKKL
Sequence of USP1/UAF1 enzyme (Q8TAF3 whole entry partner): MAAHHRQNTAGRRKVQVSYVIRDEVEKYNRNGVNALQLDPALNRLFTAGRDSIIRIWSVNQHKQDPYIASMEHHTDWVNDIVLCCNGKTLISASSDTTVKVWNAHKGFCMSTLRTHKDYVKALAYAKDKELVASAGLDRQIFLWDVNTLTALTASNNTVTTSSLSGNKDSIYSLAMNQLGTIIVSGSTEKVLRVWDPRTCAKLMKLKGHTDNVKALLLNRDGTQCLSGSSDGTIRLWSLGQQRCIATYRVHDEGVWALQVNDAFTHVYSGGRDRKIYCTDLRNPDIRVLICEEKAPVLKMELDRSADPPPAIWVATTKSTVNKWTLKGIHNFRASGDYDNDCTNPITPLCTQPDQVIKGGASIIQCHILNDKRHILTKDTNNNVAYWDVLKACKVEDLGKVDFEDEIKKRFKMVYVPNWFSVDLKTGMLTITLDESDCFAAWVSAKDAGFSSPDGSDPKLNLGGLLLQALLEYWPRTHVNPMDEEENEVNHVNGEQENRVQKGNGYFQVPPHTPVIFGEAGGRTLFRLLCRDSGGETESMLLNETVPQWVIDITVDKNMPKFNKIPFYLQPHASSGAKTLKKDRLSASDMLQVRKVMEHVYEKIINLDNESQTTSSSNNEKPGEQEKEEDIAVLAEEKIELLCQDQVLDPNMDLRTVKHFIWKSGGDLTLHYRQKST

| Compound | pIC50 (USP1/UAF1 enzyme) | pIC50 [1] | solubility at 24 h [2, 5] | solubility at 24 h [2, 6] | half-life at 1 μM [3] | half-life at 1 μM [4] |
| --- | --- | --- | --- | --- | --- | --- |
| CCn1cc(C(F)(F)F)nc1-c1ccc([C@H](C)n2c(=O)ccn3nc(-c4c(OC)ncnc4C4CC4)cc23)cc1F (single isomer, unassigned) [Example 334] | > 7.00 | 6.30 to 7.00 | < 10 µM | < 10 µM | > 25 min | > 25 min |
| CCn1cc(C(F)(F)F)nc1-c1ccc(CN2C(=O)[C@H](C)Cn3nc(-c4c(OC)ncnc4C4CC4)nc32)cc1F (single isomer, unassigned) [Example 348] | > 7.00 | > 7.00 | ≥ 10 µM | ≥ 10 µM | > 25 min | > 25 min |
| CCn1cc(C(F)(F)F)nc1-c1ccc(CN2C(=O)[C@@H](C)Cn3nc(-c4c(OC)ncnc4C4CC4)nc32)cc1F (single isomer, unassigned) [Example 349] | > 7.00 | > 7.00 | ≥ 10 µM | < 10 µM | > 25 min | > 25 min |
| COc1ncnc(C2CC2)c1-c1cc2n(n1)CCC(=O)N2Cc1ccc(-c2nc(C(F)(F)F)cn2C)cc1 [Example 1, 2-(4-cyclopropyl-6-methoxypyrimidin-5-yl)-4-(4-(1-methyl-4-(trifluoromethyl)-1H-imidazol-2-yl)benzyl)-6,7-dihydropyrazolo[1,5-α]pyrimidin-5(4H)-one] | > 7.00 | 6.30 to 7.00 | ≥ 10 µM | < 10 µM | > 25 min | > 25 min |
| COc1ncnc(C2CC2)c1-c1cc2n(n1)CCC(=O)N2Cc1ccc(-n2nc(C(F)(F)F)cc2OC)c(F)c1 [Example 7, 2-(4-cyclopropyl-6-methoxypyrimidin-5-yl)-4-(3-fluoro-4-(5-methoxy-3-(trifluoromethyl)-1H-pyrazol-1-yl)benzyl)-6,7-dihydropyrazolo[1,5-a]pyrimidin-5(4H)-one] | > 7.00 | 6.30 to 7.00 | < 10 µM | < 10 µM | > 25 min | > 25 min |

The next lines start with the values.

| pIC50 (USP1/UAF1 enzyme) | pIC50 [1] | solubility at 24 h [2, 5] | solubility at 24 h [2, 6] | half-life at 1 μM [3] | half-life at 1 μM [4] | Compound |
| --- | --- | --- | --- | --- | --- | --- |
| > 7.00 | 6.30 to 7.00 | < 10 µM | < 10 µM | > 25 min | > 25 min | COc1ncnc(C2CC2)c1-c1cc2n(n1)CCC(=O)N2Cc1ccc(-c2nc(C(F)(F)F)cn2C)c(F)c1 [Example 2, 2-(4-cyclopropyl-6-methoxypyrimidin-5-yl)-4-(3-fluoro-4-(1-methyl-4-(trifluoromethyl)-1H-imidazol-2-yl)benzyl)-6,7-dihydropyrazolo[1,5-a]pyrimidin-5(4H)-one] |
| > 7.00 | < 6.30 | ≥ 10 µM | ≥ 10 µM | < 25 min | < 25 min | Cc1cnn(C(C)C)c1-c1cc2n(n1)CCC(=O)N2Cc1ccc(-c2nc(C(F)(F)F)cn2C)cc1 [Example 6, 2-(1-isopropyl-4-methyl-1H-pyrazol-5-yl)-4-(4-(1-methyl-4-(trifluoromethyl)-1H-imidazol-2-yl)benzyl)-6,7-dihydropyrazolo[1,5-a]pyrimidin-5(4H)-one] |
| > 7.00 | > 7.00 | ≥ 10 µM | ≥ 10 µM | < 25 min | < 25 min | CCn1cc(C(F)(F)F)nc1-c1ccc(CN2C(=O)CCn3nc(-c4c(C)cnn4C(C)C)cc32)cc1 [Example 9, 4-(4-(1-ethyl-4-(trifluoromethyl)-1H-imidazol-2-yl)benzyl)-2-(1-isopropyl-4-methyl-1H-pyrazol-5-yl)-6,7-dihydropyrazolo[1,5-a]pyrimidin-5(4H)-one] |
| > 7.00 | 6.30 to 7.00 | < 10 µM | < 10 µM | < 25 min | < 25 min | Cc1cnn(C(C)C)c1-c1cc2n(n1)CCC(=O)N2Cc1ccc(-n2nc(C(F)(F)F)cc2C)cc1 [Example 10, 2-(1-isopropyl-4-methyl-1H-pyrazol-5-yl)-4-(4-(5-methyl-3-(trifluoromethyl)-1H-pyrazol-1-yl)benzyl)-6,7-dihydropyrazolo[1,5-a]pyrimidin-5(4H)-one] |
| < 6.30 | < 6.30 | ≥ 10 µM | < 10 µM | < 25 min | < 25 min | Cc1cnn(C(C)C)c1-c1cc2n(n1)CCC(=O)N2Cc1ccc(-c2nc(C(F)(F)F)nn2C)cc1 [Example 11, 2-(1-isopropyl-4-methyl-1H-pyrazol-5-yl)-4-(4-(1-methyl-3-(trifluoromethyl)-1H-1,2,4-triazol-5-yl)benzyl)-6,7-dihydropyrazolo[1,5-a]pyrimidin-5(4H)-one] |
| > 7.00 | 6.30 to 7.00 | < 10 µM | < 10 µM | < 25 min | < 25 min | COc1cc(C(F)(F)F)nn1-c1ccc(CN2C(=O)CCn3nc(-c4c(C)cnn4C(C)C)cc32)cc1F [Example 12, 4-(3-fluoro-4-(5-methoxy-3-(trifluoromethyl)-1H-pyrazol-1-yl)benzyl)-2-(1-isopropyl-4-methyl-1H-pyrazol-5-yl)-6,7-dihydropyrazolo[1,5-a]pyrimidin-5(4H)-one] |
| > 7.00 | > 7.00 | < 10 µM | < 10 µM | > 25 min | > 25 min | COc1cc(C(F)(F)F)nn1-c1ccc(CN2C(=O)CCn3nc(-c4c(Cl)cnn4C(C)C)cc32)cc1F [Example 14, 2-(4-chloro-1-isopropyl-1H-pyrazol-5-yl)-4-(3-fluoro-4-(5-methoxy-3-(trifluoromethyl)-1H-pyrazol-1-yl)benzyl)-6,7-dihydropyrazolo[1,5-a]pyrimidin-5(4H)-one] |
| > 7.00 | > 7.00 | < 10 µM | < 10 µM | < 25 min | > 25 min | CC(C)n1ncc(Cl)c1-c1cc2n(n1)CCC(=O)N2Cc1ccc(-c2nc(C(F)(F)F)cn2C)c(F)c1 [Example 16, 2-(4-chloro-1-isopropyl-1H-pyrazol-5-yl)-4-(3-fluoro-4-(1-methyl-4-(trifluoromethyl)-1H-imidazol-2-yl)benzyl)-6,7-dihydropyrazolo[1,5-a]pyrimidin-5(4H)-one] |
